These results are taken from patent EP1108710A1, “GUAIACOXYPROPANOLAMINES WITH ALPHA/BETA-ADRENERGIC BLOCKING ACTIVITY” (Cheng, Ing-Jun, priority 1998, dated 2000).

Assay [1] relates to Wistar rat's isolated; reserpine pretreated right atrium beating rate and left atrium isometric contractions. The assay is described as follows: Direct effect (intrinsic sympathomimetic activity) on reserpine-pretreated isolated atria. As to the method:
Pharmacol 311, pp. 205-218 and pp 237-248 (1980). Wistar rats of weight between 200 ∼ 300 gm were used. 18 ∼ 24 hours before the experiment, 5mg/kg of reserpine was injected via abdominal cavity to remove all endogenous catecholamines. Prior experiment, Wistar rats were sacrificed, the heart was immediately removed and placed in Kreb's solution aerated with air mixture and maintained at room temperature. The right and left atria were carefully separated.

The target of assay [2] is T1, atrial β 1-receptor (Rattus norvegicus, UniProt P18090).
T1 construct: The heart and lung of rat were removed and placed in cold Tris buffer; from tissue; host or cells: rat atrial membranes
The assay is described as follows: [3H]CGP-12177 receptor binding on atrial membranes. Further details: species or system Wistar rat. As for the experimental part:
(§1) The heart and lung of rat were removed and placed in cold Tris buffer. Then the atria and lung were separated and weighed, before placing in cold Tris buffer with volume 20X their weights. […] The centrifugal fluid was again centrifuged at 10,000 gm for 12 minutes. The second centrifugal fluid was centrifuged for the third time at 29,000 gm for 15 minutes. The pellet finally obtained was re-suspended in Tris buffer as little as possible. […] Finally, the protein concentration was diluted with Tris buffer to maintain 200∼250 µ g protein per 100 µ l.
(§2) After reaction, 1ml of cold Tris buffer was added to terminate the binding reaction.

The target of assay [3] is T2, β-adrenoreceptor (β1) (Rattus norvegicus, UniProt P18090).
T2 construct: The right and left atria were then separated; from tissue; host or cells: isolated rat right and left atria
The assay is described as follows: β-adrenoceptor blocking action on isolated spontaneously beating right atrium (L-isoproterenol-induced heart rate increase, Schild plot). Further details: species or system Wistar rat. As for the experimental part:
The right and left atria were then separated. The spontaneously-beating right atria was clipped on both end by heart shaped clips, where one end was fixed at the bottom of 10ml of tissue bath made of physiological saline solution, and temperature maintained at 37°C. The other end of the atria was connected to a force transducer, and isometric contractions and beating rate of the right atria were recorded by COULBOURN AT-High-Speed VideoFigure. […] Cumulative administration interval was when the previous concentration reached its greatest effect, the next concentration would be immediately given.

Assay [4] deals with BayK8644 pretreated thoracic aorta. The assay is described as follows: Isolated thoracic aorta pretreated with BayK8644, then contracted with concentrated potassium solution. Set-up: species or system Wistar rat. The settings on record: 0.1 µ M of BayK8644 for 10 minutes; 10^-8 to 10^-5 M compound. As to the method:
The effect of compound 1 on the thoracic aorta contraction caused by 75mM KCl. The Wistar rat's isolated thoracic aorta was contraction induced by 75mM of concentrated Potassium solution. […] Furthermore, the contraction effects of 10^-8M of compound 1- 9 were indicated on Table 1. (b) The effect of compound 1 on BayK8644 pretreated thoracic aorta: 0.1 µ M of BayK8644 was first added into the tissue trough. 10 minutes later, 75mM of concentrated Potassium solution was added to induce thoracic aorta contraction. When vasoconstriction had reached stability, different concentrations of (10^-8, 10^-7, 10^-6, and 10^-5M) compound 1 were separately added.

The target in assay [5] is T2, β-adrenoreceptor (β1). The assay can be described thus: β-adrenoceptor blocking action on electrically driven isolated left atrium (L-isoproterenol-induced contractility). Set-up: species or system Wistar rat. As to the method: The inspontaneously-beating left atrial tissue was obtained from rat's isolated right atrial tissue experiments. […] The contraction rate was 1Hz and the resting tension 0.5 gm. After 60 minutes of equilibration, the following experiments were performed: • (a) Completion of cumulative concentration-response curve: similar to experimental method on isolated right atrium; • (b)Calculation of pA2 value: similar to calculation method on isolated right atrium.

The subject of assay [6] is guinea pig's isolated; reserpine pretreated tracheal. The assay can be described thus: Direct effect (tracheal relaxation, intrinsic sympathomimetic activity) on reserpine-pretreated isolated trachea, with and without ICI 118,551. As to the method:
Pharmacol 311, pp. 205-218 and pp.237-248 (1980). guinea pigs of weight between 350 ∼ 500 gm were used. 18 ∼ 24 hours before the experiment, 5mg/kg of reserpine was injected via abdominal cavity to remove all endogenous catecholamines. Prior experiment, guinea pigs were sacrificed, the tracheal was immediately removed and placed in Kreb's solution aerated with air mixture and maintained at room temperature of 22 ∼ 25°C. […] […] Then the tissue was repeatedly washed with Kreb's solution. After the tissue had been re-equilibrated for 60 minutes, ICI 118, 551 were administed. After treatment for 30 minutes, compound 1 of similar concentration was administered, and the intrinsic sympathomimetic activity of tracheal was observed.

Assay [7] concerns the target T3, β2-adrenoceptor (Cavia porcellus, UniProt Q8K4Z4).
T3 construct: a portion of tracheal approximately 4 cm long was removed; from tissue; host or cells: isolated guinea pig trachea (reserpine-pretreated animals)
The assay can be described thus: β-adrenoceptor blocking action on isolated trachea contracted with carbachol (L-isoproterenol relaxation). Further details: species or system guinea pig. As to the method: Guinea pigs of weight between 300 ∼500 gm were used. […] After the guinea pigs were sacrificed, a slit was made along the neck, and a portion of tracheal approximately 4 cm long was removed. […] The two ends of the tracheal were clamped with frog-heart shaped clamps, one end was fixed at the bottom of tissue bath filled with 20 ml of Kreb's solution, maintained at 37°C, while the other end was connected to a force transducer. Through a COULBOURN AT-High-Speed Videograph, long isometric contractions were recorded. […] Then the tracheal was repeatedly washed with Kreb's solution for 20 minutes and 10^-6 M of carbochol was added to cause contraction in the guinea pig's tracheal. When the contraction reached the maximum, every division of tracheal was used to complete two concentration response curve of L-isoproternol, one of them without administration of test compound and used as control; while the other curve was administered with compound 1 for 30 minutes before concentration response curve was completed. This is the test group. • (b) Calculation of pA2: similar to the calculation method for isolated right atrium experiment.

Assay [8] deals with A7r5 cells. The assay is described as follows: Fluorescence determination of intracellular calcium ion (fluo 3-AM, laser cytometer). Type of assay: cell-based. To be noted: 10^-8, 10^-7, and 10^-6M for 5 minutes. As for the experimental part: The intensity of fluo 3-AM was measured by line scanning at 30second interval with an argon laser at […].
Background: Calcium assays in cells follow changes in intracellular calcium, usually with a dye or a luminescent sensor.

The test system of assay [9] is Wistar rat's isolated thoracic aorta. The assay can be described thus: Isolated thoracic aorta contraction caused by 75mM KCl. To be noted: 10^-8M; thoracic aorta contraction caused by 75mM KCl. As for the experimental part: After sacrificing Wistar rat of weight between 300 - 500 gm, the thoracic aorta was immediately removed and placed in cold Kreb's solution. The fatty connecting tissue surrounding the vessel wall was removed and the thoracic aorta was cut into rings of length 5 mm. The two ends of each ring was pieced and fixed with "Z" shaped platinum wires. […] When the results had been recorded for at least 35 minutes, the aorta was repeatedly rinsed with normal Kreb's solution. […] 30 minutes later, 75mM KCl was added again to induce vasoconstriction.

Assay [10] addresses T4, lung β 2-receptor (Rattus norvegicus, UniProt P10608).
T4 construct: The heart and lung of rat were removed and placed in cold Tris buffer; from tissue; host or cells: rat lung membranes
The assay can be described thus: [3H]CGP-12177 receptor binding on lung membranes. Set-up: species or system Wistar rat. As for the experimental part: as §1, §2

Assay [11] deals with normotensive rats. The assay can be described thus: Heart rate and blood pressure in living (anaesthetized) rat, intravenous injection. Type of assay: in vivo, Wistar rats. The source says: Male Wistar rats, weighing 200 ∼ 300g were abdominal anaesthetized with pentobarbital sodium. Tracheal was cannulated to maintain normal respiration. Polyethylene tube was inserted into the left femoral vein to facilitate drug administration. A 3-way stopcock was used, with one end connected to a syringe for drug injection, while the other end was connected to the syringe filled with physiological saline. The latter was used to prevent residual drugs in the polyethylene tube after injection, which would affect experimental accuracy.
The right femoral artery was also inserted with polyethylene, and a 3-way stopcock was used tool, where one end was connected to heparin solution to prevent embolism. The other end was connected to a Disposable Diaphragm Dome, TA1019, and linked to a transducer. Through an amplifier, a recorder recorded the overall and average arterial pressure; heart rate to evaluate the effect of drug on blood pressure and heart rate.

Where only a bound is given, the exact number is not on record here.

T2 sequence (P18090 whole entry): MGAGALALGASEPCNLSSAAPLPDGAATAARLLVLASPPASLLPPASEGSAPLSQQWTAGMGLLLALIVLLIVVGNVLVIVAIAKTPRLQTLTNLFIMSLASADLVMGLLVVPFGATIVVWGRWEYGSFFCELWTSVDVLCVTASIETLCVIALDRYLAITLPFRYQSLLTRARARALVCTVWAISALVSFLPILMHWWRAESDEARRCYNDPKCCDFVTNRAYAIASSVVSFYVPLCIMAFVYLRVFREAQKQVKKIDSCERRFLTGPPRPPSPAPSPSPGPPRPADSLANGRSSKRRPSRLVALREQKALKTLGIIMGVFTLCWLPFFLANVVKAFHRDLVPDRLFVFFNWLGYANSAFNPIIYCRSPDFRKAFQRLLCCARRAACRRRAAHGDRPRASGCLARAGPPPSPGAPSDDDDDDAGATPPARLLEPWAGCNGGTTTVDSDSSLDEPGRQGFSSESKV
T3 sequence (Q8K4Z4 whole entry): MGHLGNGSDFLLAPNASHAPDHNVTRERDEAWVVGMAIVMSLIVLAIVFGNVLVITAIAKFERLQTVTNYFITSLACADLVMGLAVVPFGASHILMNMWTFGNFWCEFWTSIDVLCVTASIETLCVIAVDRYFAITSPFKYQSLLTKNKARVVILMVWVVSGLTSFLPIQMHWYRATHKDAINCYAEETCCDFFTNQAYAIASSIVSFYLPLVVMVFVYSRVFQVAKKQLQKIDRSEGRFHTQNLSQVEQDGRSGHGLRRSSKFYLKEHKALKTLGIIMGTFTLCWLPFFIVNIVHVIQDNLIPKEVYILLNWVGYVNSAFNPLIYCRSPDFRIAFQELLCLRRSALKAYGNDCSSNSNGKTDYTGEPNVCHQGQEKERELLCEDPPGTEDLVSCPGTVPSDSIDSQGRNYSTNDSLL
T4 sequence (P10608 whole entry): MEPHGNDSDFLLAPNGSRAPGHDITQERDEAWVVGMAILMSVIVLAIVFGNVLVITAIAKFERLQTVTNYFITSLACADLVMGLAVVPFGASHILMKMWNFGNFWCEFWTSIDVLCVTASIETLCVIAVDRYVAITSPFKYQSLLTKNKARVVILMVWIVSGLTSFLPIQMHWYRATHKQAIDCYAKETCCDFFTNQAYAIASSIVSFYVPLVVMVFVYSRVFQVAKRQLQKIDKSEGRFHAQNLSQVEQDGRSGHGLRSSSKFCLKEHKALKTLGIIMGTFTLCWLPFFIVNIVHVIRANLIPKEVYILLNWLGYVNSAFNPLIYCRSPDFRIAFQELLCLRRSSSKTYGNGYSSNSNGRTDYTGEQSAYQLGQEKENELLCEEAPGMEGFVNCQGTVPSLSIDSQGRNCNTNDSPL
T1 sequence (P18090 whole entry): as the sequence (P18090 whole entry) above

As a reminder, the Ki is the equilibrium dissociation constant of an inhibitor or competing ligand from its target. Lower therefore signals tighter binding. Turning to `COC(=O)C1=C(C)NC(C)=C(C(=O)OC)C1c1ccc(OCC(O)CNC(C)(C)C)c(OC)c1` (stereo not shown) [compound 1], the “direct effect on right atrium beating rate and left atrium isometric contractions” value in [1] (cumulative administration, reserpine pretreated) was “could not increase the beating rate and isometric contractions”. Further, in assay [1] (reserpine pretreated atria), the “concentration with blocking effect on beating rate and isometric contractions” value was ≥ 10^-5 M. Moreover, the values for the Ki in assay [2] and in [10] were 245 nM and 631 nM, respectively. For the same compound, the “selectivity ratio of β1 type adrenoceptor (effect on right atrium relative to tracheal)” value in assay [3] (from the average pA2 difference between right atrium and tracheal) was found to be 1.32 X. Besides, the pA2 value in assay [3] (isolated right atrium, against L-isoproterenol) is listed as 7.21±0.32; in [5] (left atrium contractility, against L-isoproterenol), 6.91±0.26; in assay [7] (guinea pig's isolated tracheal, against L-isoproterenol), 7.09±0.54. In addition, the “blocking of heart rate increment effect of L-isoproterenol” value in assay [3] (isolated right atrium, three concentrations of compound) is “could competitively block the heart rate increment effect of L-isoproterenol”. Further, in assay [4], the “effect of BayK8644 pre-treatment on the compound's vascular effect” value is given as “pre-treatment with BayK8644 would affect vasoconstriction function”. For the same compound, the “blocking of heart contractility increment effect of L-isoproterenol” value in assay [5] (isolated left atrium, three concentrations of compound) is on record as “could competitively block the heart contractility increment effect of L-isoproterenol”. Also, the “tracheal relaxation effect after pretreatment with ICI 118, 551” value in assay [6] is “concentration-dependently shifting parallel to the right”. Moreover, the tracheal relaxation effect entry in assay [6] (cumulative administration 10^-10∼3x10^-6 M, reserpine pretreated) is listed as “dose-dependant tracheal relaxation effect”. The “blocking of tracheal relaxation effect of L-isoproterenol” value in [7] (trachea contracted with 10^-6 M CARBACHOL) is recorded as “could competitively block the effect of L-isoproterenol”. Moreover, the “calcium ion influx effect of KCl ([Ca^2+]i)” value in [8] (50mM KCl) is “significantly blocked”. Further, the “calcium ion influx effect of BayK8644 ([Ca^2+]i)” value in [8] (10 µ M BayK8644) is “significantly blocked”. Moreover, the “Aorta Relaxation” value in [9] is 30± 3%. Also, the “effect on blood pressure and heart rate” value in assay [11] (intravenous injection of 0.5 mg/kg) is listed as “a decrease in heart rate was shown”; in assay [11] (intravenous injection, 0.1, 0.25, 0.5, 1.0, 2.0 mg/kg, normotensive rats), “continuous dose-dependent blood pressure lowering effect without increasing heart rate”. The “duration of blood pressure lowering effect” value in assay [11] (intravenous injection, normotensive rats) was “approximately 1 hour”. In addition, in assay [11] (lmg/kg, via femoral vein, rats), the “Lowering of Blood Pressure” value is 70± 3 mm Hg. Further, the “Reduction of Heart Rate” value in assay [11] (lmg/kg, via femoral vein, rats) is on record as 30± 2 beats/min.
